ChEMBL document CHEMBL1124630, “Fluoronaphthyridines and quinolones as antibacterial agents. 1. Synthesis and structure-activity relationships of new 1-substituted derivatives” (J Med Chem, 1989)
≈ marks a conversion by molar mass, not a printed value.

Legend:
Morganella morganii [1] = test: In vitro antibacterial activity against Morganella morganii (A 15153); type: functional; conditions: Morganella morganii; read-out: MIC
Escherichia coli [2] = test: In vitro antibacterial activity against Escherichia coli (A 15119); type: functional; conditions: Escherichia coli; read-out: MIC
Enterobacter cloacae = test: In vitro antibacterial activity against Enterobacter cloacae (A 9656); type: functional; conditions: Enterobacter cloacae; read-out: MIC
Klebsiella pneumoniae [3] = test: In vitro antibacterial activity against Klebsiella pneumoniae (A 9664); type: functional; conditions: Klebsiella pneumoniae; read-out: MIC
Pseudomonas aeruginosa [4] = test: In vitro antibacterial activity against Pseudomonas aeruginosa (A 9843); type: functional; conditions: Pseudomonas aeruginosa; read-out: MIC
Staphylococcus aureus [5] = test: In vitro antibacterial activity against Staphylococcus aureus Smith (A9537); type: functional; conditions: Staphylococcus aureus; read-out: MIC
Klebsiella pneumoniae [6] = test: In vivo efficacy in systemic infection due to Klebsiella pneumoniae (A 9664) in mice; type: functional; conditions: read-out: PD50
Morganella morganii [7] = test: In vitro antibacterial activity against M. morganii(A 15153); type: functional
[8] = Urinary recovery after 24 hr in plasma after oral administration in dog (25 mg/kg); type: ADME, organism-based, Canis lupus familiaris; conditions: urine, read-out: UR
[9] = Half-life in plasma after oral administration in dog (25 mg/kg); type: ADME, organism-based, Canis lupus familiaris
[10] = Lethal dose of compound in OF1-strain female swiss mice after oral administration; type: toxicity, organism-based; conditions: mouse, in vivo
Pseudomonas aeruginosa [11] = test: In vivo efficacy in systemic infection due to Pseudomonas aeruginosa (A 9843) in mice; type: functional; conditions: read-out: PD50
Escherichia coli [12] = test: In vivo efficacy in systemic infection due to Escherichia coli (A 15119) in mice; type: functional; conditions: read-out: PD50
[13] = Maximum concentration in plasma after oral administration in dog (25 mg/kg); type: ADME, organism-based, Canis lupus familiaris; parameters: dose 25 mg/kg, route oral
Canis familiaris = test: Area under the concentration/ time in plasma after oral administration in dog (25 mg/kg); type: ADME, organism-based, Canis lupus familiaris; conditions: in vivo
Staphylococcus aureus [14] = test: In vivo efficacy in systemic infection due to Staphylococcus aureus Smith (A 9537) in mice; type: functional; conditions: read-out: PD50

| SMILES | MIC (Morganella morganii [1]) [µg/mL] | MIC (Escherichia coli [2]) [µg/mL] | MIC (Enterobacter cloacae) [µg/mL] | MIC (Klebsiella pneumoniae [3]) [µg/mL] | MIC (Pseudomonas aeruginosa [4]) [µg/mL] | MIC (Staphylococcus aureus [5]) [µg/mL] | ED50 (Klebsiella pneumoniae [6]) [mg/kg] | MIC (Morganella morganii [7]) [µg/mL] | dose excreted at 24 h [8] [%] | half-life [9] [h] | LD50 [10] [mg/kg] | ED50 (Pseudomonas aeruginosa [11]) [mg/kg] | ED50 (Escherichia coli [12]) [mg/kg] | Cmax [13] [ng/mL] | AUC (Canis familiaris) [µg/mL] | ED50 (Staphylococcus aureus [14]) [mg/kg] |
| --- | --- | --- | --- | --- | --- | --- | --- | --- | --- | --- | --- | --- | --- | --- | --- | --- |
| O=C(O)c1cn(C2CCC2)c2cc(N3CCNCC3)c(F)cc2c1=O | 0.5 (≈ 1.45 µM) | 0.13 (≈ 0.376 µM) | 1 (≈ 2.9 µM) | 0.13 (≈ 0.376 µM) | 1 (≈ 2.9 µM) | 0.5 (≈ 1.45 µM) |  |  |  |  |  |  |  |  |  |  |
| O=C(O)c1cn(-c2ccc(F)cc2)c2cc(N3CCNCC3)c(F)cc2c1=O [SARAFLOXACIN] |  | 0.05 (≈ 0.13 µM) |  | 0.02 (≈ 0.0519 µM) | 0.39 (≈ 1.01 µM) | 0.2 (≈ 0.519 µM) |  |  |  |  |  |  |  |  |  |  |
| CC(C)(C)n1cc(C(=O)O)c(=O)c2cc(F)c(N3CCNCC3)nc21 |  | 0.015 (≈ 0.0431 µM) | 0.06 (≈ 0.172 µM) | 0.13 (≈ 0.373 µM) | 1 (≈ 2.87 µM) | 0.06 (≈ 0.172 µM) | 5 | 0.25 (≈ 0.718 µM) | 12 | 4.8 | > 2500 | 12 | 2.4 | 5800 | 50 | 1.1 |
| O=C(O)c1cn(C2CC2)c2nc(N3CCNCC3)c(F)cc2c1=O | 0.06 (≈ 0.181 µM) | 0.06 (≈ 0.181 µM) | 0.06 (≈ 0.181 µM) | 0.06 (≈ 0.181 µM) | 0.06 (≈ 0.181 µM) | 0.25 (≈ 0.752 µM) | 2.2 |  |  |  |  | 3.6 | 0.5 |  |  | 6.7 |
| CC1(C)CC1n1cc(C(=O)O)c(=O)c2cc(F)c(N3CCNCC3)cc21 (stereo not given) | 8 (≈ 22.3 µM) | 1 (≈ 2.78 µM) | 4 (≈ 11.1 µM) | 2 (≈ 5.56 µM) | 32 (≈ 89 µM) | 1 (≈ 2.78 µM) |  |  |  |  |  |  |  |  |  |  |
| CC(C)n1cc(C(=O)O)c(=O)c2cc(F)c(N3CCNCC3)nc21 | 1 (≈ 2.99 µM) | 0.25 (≈ 0.748 µM) | 0.5 (≈ 1.5 µM) | 1 (≈ 2.99 µM) | 4 (≈ 12 µM) | 2 (≈ 5.98 µM) |  |  |  |  |  |  |  |  |  |  |
| O=C(O)c1cn(C2(c3ccccc3)CC2)c2cc(N3CCNCC3)c(F)cc2c1=O | 0.25 (≈ 0.614 µM) | 0.13 (≈ 0.319 µM) | 0.25 (≈ 0.614 µM) | 0.25 (≈ 0.614 µM) | 4 (≈ 9.82 µM) | 0.13 (≈ 0.319 µM) |  |  |  |  |  |  |  |  |  |  |
| CC1(n2cc(C(=O)O)c(=O)c3cc(F)c(N4CCNCC4)cc32)CC1 | 0.25 (≈ 0.724 µM) | 0.06 (≈ 0.174 µM) | 0.5 (≈ 1.45 µM) | 0.25 (≈ 0.724 µM) | 0.5 (≈ 1.45 µM) | 0.25 (≈ 0.724 µM) |  |  |  |  |  |  |  |  |  |  |
| CC(C)n1cc(C(=O)O)c(=O)c2cc(F)c(N3CCNCC3)cc21 | 0.25 (≈ 0.75 µM) | 0.5 (≈ 1.5 µM) | 2 (≈ 6 µM) | 1 (≈ 3 µM) | 1 (≈ 3 µM) | 1 (≈ 3 µM) |  |  |  |  |  |  |  |  |  |  |
| CC(c1ccccc1)n1cc(C(=O)O)c(=O)c2cc(F)c(N3CCNCC3)cc21 (stereo not given) | 16 (≈ 40.5 µM) | 2 (≈ 5.06 µM) | 4 (≈ 10.1 µM) | 4 (≈ 10.1 µM) | 32 (≈ 80.9 µM) | 4 (≈ 10.1 µM) |  |  |  |  |  |  |  |  |  |  |
| O=C(O)c1cn(C2CC2)c2cc(N3CCNCC3)c(F)cc2c1=O [CIPROFLOXACIN] | 0.015 (≈ 0.0453 µM) |  |  | 0.03 (≈ 0.0905 µM) | 0.13 (≈ 0.392 µM) | 0.13 (≈ 0.392 µM) | 1.5 |  | 17 |  |  | 5 | 0.7 | 3000 | 20 | 4 |
| O=C(O)c1cn(C2CC2)c2c(F)c(N3CCNCC3)c(F)cc2c1=O | 0.008 (≈ 0.0229 µM) | 0.03 (≈ 0.0859 µM) | 0.06 (≈ 0.172 µM) | 0.06 (≈ 0.172 µM) | 0.25 (≈ 0.716 µM) | 0.13 (≈ 0.372 µM) |  |  |  |  |  |  |  |  |  |  |
| CCC(C)(C)n1cc(C(=O)O)c(=O)c2cc(F)c(N3CCNCC3)cc21 | 4 (≈ 11.1 µM) | 0.5 (≈ 1.38 µM) | 1 (≈ 2.77 µM) | 1 (≈ 2.77 µM) | 4 (≈ 11.1 µM) | 0.25 (≈ 0.692 µM) |  |  |  |  |  |  |  |  |  |  |
| C=C(C)n1cc(C(=O)O)c(=O)c2cc(F)c(N3CCNCC3)cc21 | 0.13 (≈ 0.392 µM) | 0.13 (≈ 0.392 µM) | 0.06 (≈ 0.181 µM) | 0.25 (≈ 0.754 µM) | 0.5 (≈ 1.51 µM) | 0.5 (≈ 1.51 µM) |  |  |  |  |  |  |  |  |  |  |
